Key:
Assay in all cases: KINOMEscan competition binding
Conditions in all cases: OR0642 1 µM; read-out: %Control
SRC = molecular target: T1, SRC (Homo sapiens, UniProt P12931)
T1 construct: purchased Eurofins DiscoverX (KINOMEscan scanEDGE 97)
Description: (§1) Kinome profiling was provided by Eurofins DiscoverX Corporation. Determination of the % control activity for 97 kinases was obtained through an active site-directed competition binding assay that quantitatively measure interactions between compound and kinases. OR0642 was used at 1 μM.
(§2) Supplementary Table 3. KINOMEscan™ Profiling of OR0642. Competition binding assay to quantitatively measure interactions between OR0642 (1 µM) and 97 human kinases and disease relevant mutant variants.
(§3) Target Gene Symbol %Control Target Gene Symbol %Control […]

[1] = molecular target: T2, JAK2(JH1domain-catalytic) (Homo sapiens, UniProt O60674)
T2 construct: JAK2(JH1domain-catalytic); purchased Eurofins DiscoverX (KINOMEscan scanEDGE 97)
Description: as §1, §2, §3

PKAC-alpha = molecular target: T3, PKAC-alpha (Homo sapiens, UniProt P17612)
T3 construct: purchased Eurofins DiscoverX (KINOMEscan scanEDGE 97)
Description: as §1, §2, §3

PLK1 = molecular target: T4, PLK1 (Homo sapiens, UniProt P53350)
T4 construct: purchased Eurofins DiscoverX (KINOMEscan scanEDGE 97)
Description: as §1, §2, §3

ROCK2 = molecular target: T5, ROCK2 (Homo sapiens, UniProt O75116)
T5 construct: purchased Eurofins DiscoverX (KINOMEscan scanEDGE 97)
Description: as §1, §2, §3

RIOK2 = molecular target: T6, RIOK2 (Homo sapiens, UniProt Q9BVS4)
T6 construct: purchased Eurofins DiscoverX (KINOMEscan scanEDGE 97)
Description: as §1, §2, §3

YANK3 = molecular target: T7, YANK3 (Homo sapiens, UniProt Q86UX6)
T7 construct: purchased Eurofins DiscoverX (KINOMEscan scanEDGE 97)
Description: as §1, §2, §3

PLK3 = molecular target: T8, PLK3 (Homo sapiens, UniProt Q9H4B4)
T8 construct: purchased Eurofins DiscoverX (KINOMEscan scanEDGE 97)
Description: as §1, §2, §3

[2] = molecular target: T9, TYK2(JH1domain-catalytic) (Homo sapiens, UniProt P29597)
T9 construct: TYK2(JH1domain-catalytic); purchased Eurofins DiscoverX (KINOMEscan scanEDGE 97)
Description: as §1, §2, §3

[3] = molecular target: T10, JAK3(JH1domain-catalytic) (Homo sapiens, UniProt P52333)
T10 construct: JAK3(JH1domain-catalytic); purchased Eurofins DiscoverX (KINOMEscan scanEDGE 97)
Description: as §1, §2, §3

TGFBR1 = molecular target: T11, TGFBR1 (Homo sapiens, UniProt P36897)
T11 construct: purchased Eurofins DiscoverX (KINOMEscan scanEDGE 97)
Description: as §1, §2, §3

PIM2 = molecular target: T12, PIM2 (Homo sapiens, UniProt Q9P1W9)
T12 construct: purchased Eurofins DiscoverX (KINOMEscan scanEDGE 97)
Description: as §1, §2, §3

p38-alpha = molecular target: T13, p38-alpha (Homo sapiens, UniProt Q16539)
T13 construct: purchased Eurofins DiscoverX (KINOMEscan scanEDGE 97)
Description: as §1, §2, §3

TRKA = molecular target: T14, TRKA (Homo sapiens, UniProt P04629)
T14 construct: purchased Eurofins DiscoverX (KINOMEscan scanEDGE 97)
Description: as §1, §2, §3

ERBB2 = molecular target: T15, ERBB2 (Homo sapiens, UniProt P04626)
T15 construct: purchased Eurofins DiscoverX (KINOMEscan scanEDGE 97)
Description: as §1
(§4) Supplementary Table 3. KINOMEscan™ Profiling of OR0642. Competition binding assay to
(§5) quantitatively measure interactions between OR0642 (1 µM) and 97 human kinases and disease
(§6) relevant mutant variants.

AKT2 = molecular target: T16, AKT2 (Homo sapiens, UniProt P31751)
T16 construct: purchased Eurofins DiscoverX (KINOMEscan scanEDGE 97)
Description: as §1, §4, §5, §6

PIK3CA = molecular target: T17, PIK3CA (Homo sapiens, UniProt P42336)
T17 construct: purchased Eurofins DiscoverX (KINOMEscan scanEDGE 97)
Description: as §1, §4, §5, §6

ALK = molecular target: T18, ALK (Homo sapiens, UniProt Q9UM73)
T18 construct: purchased Eurofins DiscoverX (KINOMEscan scanEDGE 97)
Description: as §1, §4, §5, §6

ERK1 = molecular target: T19, ERK1 (Homo sapiens, UniProt P27361)
T19 construct: purchased Eurofins DiscoverX (KINOMEscan scanEDGE 97)
Description: as §1, §4, §5, §6

ADCK3 = molecular target: T20, ADCK3 (Homo sapiens, UniProt Q8NI60)
T20 construct: purchased Eurofins DiscoverX (KINOMEscan scanEDGE 97)
Description: as §1, §4, §5, §6

ABL1-phosphorylated = molecular target: T21, ABL1-phosphorylated (Homo sapiens, UniProt P00519)
T21 construct: purchased Eurofins DiscoverX (KINOMEscan scanEDGE 97)
Description: as §1, §4, §5, §6

PCTK1 = molecular target: T22, PCTK1 (Homo sapiens, UniProt Q00536)
T22 construct: purchased Eurofins DiscoverX (KINOMEscan scanEDGE 97)
Description: as §1, §4, §5, §6

FLT3 = molecular target: T23, FLT3 (Homo sapiens, UniProt P36888)
T23 construct: purchased Eurofins DiscoverX (KINOMEscan scanEDGE 97)
Description: as §1, §4, §5, §6

KIT(D816V) = molecular target: T24, KIT(D816V) (Homo sapiens, UniProt P10721, D816V)
T24 construct: purchased Eurofins DiscoverX (KINOMEscan scanEDGE 97)
Description: as §1, §4, §5, §6

BMPR2 = molecular target: T25, BMPR2 (Homo sapiens, UniProt Q13873)
T25 construct: purchased Eurofins DiscoverX (KINOMEscan scanEDGE 97)
Description: as §1, §4, §5, §6

CDK7 = molecular target: T26, CDK7 (Homo sapiens, UniProt P50613)
T26 construct: purchased Eurofins DiscoverX (KINOMEscan scanEDGE 97)
Description: as §1, §4, §5, §6

AKT1 = molecular target: T27, AKT1 (Homo sapiens, UniProt P31749)
T27 construct: purchased Eurofins DiscoverX (KINOMEscan scanEDGE 97)
Description: as §1, §4, §5, §6

AXL = molecular target: T28, AXL (Homo sapiens, UniProt P30530)
T28 construct: purchased Eurofins DiscoverX (KINOMEscan scanEDGE 97)
Description: as §1, §4, §5, §6

CDK2 = molecular target: T29, CDK2 (Homo sapiens, UniProt P24941)
T29 construct: purchased Eurofins DiscoverX (KINOMEscan scanEDGE 97)
Description: as §1, §4, §5, §6

ACVR1B = molecular target: T30, ACVR1B (Homo sapiens, UniProt P36896)
T30 construct: purchased Eurofins DiscoverX (KINOMEscan scanEDGE 97)
Description: as §1, §4, §5, §6

FAK = molecular target: T31, FAK (Homo sapiens, UniProt Q05397)
T31 construct: purchased Eurofins DiscoverX (KINOMEscan scanEDGE 97)
Description: as §1, §4, §5, §6

EGFR(L858R) = molecular target: T32, EGFR(L858R) (Homo sapiens, UniProt P00533, L858R)
T32 construct: purchased Eurofins DiscoverX (KINOMEscan scanEDGE 97)
Description: as §1, §4, §5, §6

JNK3 = molecular target: T33, JNK3 (Homo sapiens, UniProt P53779)
T33 construct: purchased Eurofins DiscoverX (KINOMEscan scanEDGE 97)
Description: as §1, §4, §5, §6

BTK = molecular target: T34, BTK (Homo sapiens, UniProt Q06187)
T34 construct: purchased Eurofins DiscoverX (KINOMEscan scanEDGE 97)
Description: as §1, §4, §5, §6

EPHA2 = molecular target: T35, EPHA2 (Homo sapiens, UniProt P29317)
T35 construct: purchased Eurofins DiscoverX (KINOMEscan scanEDGE 97)
Description: as §1, §4, §5, §6

MLK1 = molecular target: T36, MLK1 (Homo sapiens, UniProt P80192)
T36 construct: purchased Eurofins DiscoverX (KINOMEscan scanEDGE 97)
Description: as §1, §4, §5, §6

BRAF = molecular target: T37, BRAF (Homo sapiens, UniProt P15056)
T37 construct: purchased Eurofins DiscoverX (KINOMEscan scanEDGE 97)
Description: as §1, §4, §5, §6

MEK2 = molecular target: T38, MEK2 (Homo sapiens, UniProt P36507)
T38 construct: purchased Eurofins DiscoverX (KINOMEscan scanEDGE 97)
Description: as §1, §4, §5, §6

MET = molecular target: T39, MET (Homo sapiens, UniProt P08581)
T39 construct: purchased Eurofins DiscoverX (KINOMEscan scanEDGE 97)
Description: as §1, §4, §5, §6

T7 sequence (Q86UX6 whole entry): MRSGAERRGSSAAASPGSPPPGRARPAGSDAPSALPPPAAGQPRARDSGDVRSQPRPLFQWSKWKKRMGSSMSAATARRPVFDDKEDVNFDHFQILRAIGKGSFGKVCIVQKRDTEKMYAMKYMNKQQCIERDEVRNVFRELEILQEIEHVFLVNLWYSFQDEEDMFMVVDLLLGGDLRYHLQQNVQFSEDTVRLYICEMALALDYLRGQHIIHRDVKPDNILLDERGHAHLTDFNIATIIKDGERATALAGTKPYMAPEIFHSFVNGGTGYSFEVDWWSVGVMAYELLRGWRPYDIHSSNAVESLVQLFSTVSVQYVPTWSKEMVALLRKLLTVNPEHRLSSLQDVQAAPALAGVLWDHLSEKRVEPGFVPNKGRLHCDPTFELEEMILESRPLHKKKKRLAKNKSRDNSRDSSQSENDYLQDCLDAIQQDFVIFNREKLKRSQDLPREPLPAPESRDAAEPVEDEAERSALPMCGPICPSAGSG
T27 sequence (P31749 whole entry): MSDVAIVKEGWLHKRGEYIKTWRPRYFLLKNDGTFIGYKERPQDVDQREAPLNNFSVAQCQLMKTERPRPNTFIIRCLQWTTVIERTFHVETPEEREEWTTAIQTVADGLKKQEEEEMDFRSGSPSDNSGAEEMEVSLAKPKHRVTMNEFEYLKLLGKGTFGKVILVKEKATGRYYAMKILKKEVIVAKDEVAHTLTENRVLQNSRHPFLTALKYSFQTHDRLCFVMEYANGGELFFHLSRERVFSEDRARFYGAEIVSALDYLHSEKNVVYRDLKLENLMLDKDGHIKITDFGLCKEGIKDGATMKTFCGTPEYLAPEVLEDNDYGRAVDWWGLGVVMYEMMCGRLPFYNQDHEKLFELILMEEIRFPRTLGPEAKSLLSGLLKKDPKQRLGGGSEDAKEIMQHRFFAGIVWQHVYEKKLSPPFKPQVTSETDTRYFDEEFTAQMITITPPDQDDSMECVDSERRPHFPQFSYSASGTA
T19 sequence (P27361 whole entry): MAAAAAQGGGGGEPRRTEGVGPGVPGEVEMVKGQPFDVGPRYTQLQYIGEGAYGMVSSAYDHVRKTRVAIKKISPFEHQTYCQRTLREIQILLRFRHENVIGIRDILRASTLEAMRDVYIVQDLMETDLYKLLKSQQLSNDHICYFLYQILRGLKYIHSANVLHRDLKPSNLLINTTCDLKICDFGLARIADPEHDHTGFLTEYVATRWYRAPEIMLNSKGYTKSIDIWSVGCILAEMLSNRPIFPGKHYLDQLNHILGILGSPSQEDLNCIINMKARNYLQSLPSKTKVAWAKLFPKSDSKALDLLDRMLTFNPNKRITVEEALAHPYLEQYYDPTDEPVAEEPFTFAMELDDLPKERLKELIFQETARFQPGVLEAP
T15 sequence (P04626 23-1255): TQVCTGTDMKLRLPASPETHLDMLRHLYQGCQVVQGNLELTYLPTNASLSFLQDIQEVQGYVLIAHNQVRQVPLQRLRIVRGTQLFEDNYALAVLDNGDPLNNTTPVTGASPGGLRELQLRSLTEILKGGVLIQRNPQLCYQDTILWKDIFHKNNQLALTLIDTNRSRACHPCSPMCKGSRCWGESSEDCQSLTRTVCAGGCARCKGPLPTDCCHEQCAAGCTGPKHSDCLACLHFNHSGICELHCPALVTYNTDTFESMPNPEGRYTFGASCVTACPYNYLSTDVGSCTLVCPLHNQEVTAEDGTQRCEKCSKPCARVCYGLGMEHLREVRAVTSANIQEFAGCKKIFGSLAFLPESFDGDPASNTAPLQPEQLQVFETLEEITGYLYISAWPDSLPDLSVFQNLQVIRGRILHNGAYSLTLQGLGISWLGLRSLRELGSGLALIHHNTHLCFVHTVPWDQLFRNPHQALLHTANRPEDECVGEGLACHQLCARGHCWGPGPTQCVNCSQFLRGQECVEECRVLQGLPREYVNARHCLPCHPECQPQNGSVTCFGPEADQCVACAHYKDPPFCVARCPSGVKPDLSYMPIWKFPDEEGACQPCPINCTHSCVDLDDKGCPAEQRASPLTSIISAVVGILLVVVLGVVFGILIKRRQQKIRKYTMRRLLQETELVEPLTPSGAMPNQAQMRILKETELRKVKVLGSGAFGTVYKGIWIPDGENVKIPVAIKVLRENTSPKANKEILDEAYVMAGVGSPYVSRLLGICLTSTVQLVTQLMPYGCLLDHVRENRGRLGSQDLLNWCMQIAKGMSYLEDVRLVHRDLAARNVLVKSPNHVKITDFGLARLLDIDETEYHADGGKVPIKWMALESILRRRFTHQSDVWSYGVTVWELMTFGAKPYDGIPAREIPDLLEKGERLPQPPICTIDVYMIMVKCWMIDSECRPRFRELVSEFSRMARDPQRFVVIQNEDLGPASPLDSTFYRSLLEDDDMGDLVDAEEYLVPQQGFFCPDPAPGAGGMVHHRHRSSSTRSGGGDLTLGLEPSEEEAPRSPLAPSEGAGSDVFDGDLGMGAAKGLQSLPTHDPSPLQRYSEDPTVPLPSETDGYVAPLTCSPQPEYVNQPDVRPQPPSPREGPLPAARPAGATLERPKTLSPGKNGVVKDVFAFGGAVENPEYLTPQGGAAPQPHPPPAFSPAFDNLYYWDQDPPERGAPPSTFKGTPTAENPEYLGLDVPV
T11 sequence (P36897 34-503): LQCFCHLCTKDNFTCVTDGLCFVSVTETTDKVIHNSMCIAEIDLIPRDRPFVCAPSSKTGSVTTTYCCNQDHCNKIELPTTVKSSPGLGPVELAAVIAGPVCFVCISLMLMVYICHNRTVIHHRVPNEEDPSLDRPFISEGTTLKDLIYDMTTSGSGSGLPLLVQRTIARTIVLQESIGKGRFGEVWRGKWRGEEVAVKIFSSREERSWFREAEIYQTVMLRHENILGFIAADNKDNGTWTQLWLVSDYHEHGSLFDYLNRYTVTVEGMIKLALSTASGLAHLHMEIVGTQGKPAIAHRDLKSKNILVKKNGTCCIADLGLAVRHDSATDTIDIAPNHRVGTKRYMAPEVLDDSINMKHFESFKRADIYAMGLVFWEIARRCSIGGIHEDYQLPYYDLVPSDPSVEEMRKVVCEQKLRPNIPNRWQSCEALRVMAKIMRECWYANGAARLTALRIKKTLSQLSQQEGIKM
T39 sequence (P08581 25-1390): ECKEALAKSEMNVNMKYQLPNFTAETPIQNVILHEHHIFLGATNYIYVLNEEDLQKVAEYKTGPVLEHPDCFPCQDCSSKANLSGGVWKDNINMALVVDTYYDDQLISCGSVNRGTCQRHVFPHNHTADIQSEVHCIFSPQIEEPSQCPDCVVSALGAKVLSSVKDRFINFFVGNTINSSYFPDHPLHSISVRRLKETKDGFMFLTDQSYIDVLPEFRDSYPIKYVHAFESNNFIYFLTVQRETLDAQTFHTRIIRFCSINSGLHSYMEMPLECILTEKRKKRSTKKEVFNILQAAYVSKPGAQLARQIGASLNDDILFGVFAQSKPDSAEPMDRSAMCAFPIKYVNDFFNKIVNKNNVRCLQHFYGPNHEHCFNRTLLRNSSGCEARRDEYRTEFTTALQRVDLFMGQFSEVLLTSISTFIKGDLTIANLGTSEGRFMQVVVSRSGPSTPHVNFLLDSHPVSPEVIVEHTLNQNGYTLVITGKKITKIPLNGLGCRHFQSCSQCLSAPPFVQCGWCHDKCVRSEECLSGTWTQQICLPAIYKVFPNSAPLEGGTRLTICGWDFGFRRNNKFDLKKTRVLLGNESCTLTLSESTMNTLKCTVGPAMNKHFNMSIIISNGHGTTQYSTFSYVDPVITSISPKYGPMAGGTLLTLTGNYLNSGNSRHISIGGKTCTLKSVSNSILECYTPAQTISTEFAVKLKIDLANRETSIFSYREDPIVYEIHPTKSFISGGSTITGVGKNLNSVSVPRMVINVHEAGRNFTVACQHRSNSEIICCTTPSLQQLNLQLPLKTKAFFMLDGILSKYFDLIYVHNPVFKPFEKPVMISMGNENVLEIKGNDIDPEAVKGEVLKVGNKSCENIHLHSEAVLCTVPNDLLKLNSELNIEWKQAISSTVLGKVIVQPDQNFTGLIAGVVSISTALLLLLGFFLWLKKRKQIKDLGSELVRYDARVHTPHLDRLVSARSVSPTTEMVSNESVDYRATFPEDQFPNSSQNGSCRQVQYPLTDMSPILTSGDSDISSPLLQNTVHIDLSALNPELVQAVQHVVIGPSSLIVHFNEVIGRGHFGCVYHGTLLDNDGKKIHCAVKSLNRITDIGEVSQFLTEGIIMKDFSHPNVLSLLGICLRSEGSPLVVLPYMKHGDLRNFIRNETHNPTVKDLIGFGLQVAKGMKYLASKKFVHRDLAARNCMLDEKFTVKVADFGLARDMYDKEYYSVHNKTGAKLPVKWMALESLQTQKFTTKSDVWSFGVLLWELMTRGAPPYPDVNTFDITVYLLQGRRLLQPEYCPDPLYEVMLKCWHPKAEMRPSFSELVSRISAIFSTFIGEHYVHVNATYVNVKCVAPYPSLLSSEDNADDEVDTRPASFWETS
T13 sequence (Q16539 whole entry): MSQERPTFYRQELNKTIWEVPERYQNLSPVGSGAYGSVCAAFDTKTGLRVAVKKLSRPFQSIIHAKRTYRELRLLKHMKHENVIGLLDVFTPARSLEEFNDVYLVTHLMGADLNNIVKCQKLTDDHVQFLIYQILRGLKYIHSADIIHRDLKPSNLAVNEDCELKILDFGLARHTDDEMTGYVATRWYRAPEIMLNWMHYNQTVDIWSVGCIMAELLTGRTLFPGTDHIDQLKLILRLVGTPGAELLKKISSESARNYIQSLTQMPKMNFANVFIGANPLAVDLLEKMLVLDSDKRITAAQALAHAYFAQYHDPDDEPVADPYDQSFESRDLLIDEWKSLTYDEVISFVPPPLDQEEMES

CCCN(c1nc(-c2nc(N)cc(N)n2)cs1)c1cc(-c2ccc(S(=O)(=O)N3CCN(C)CC3)cc2C(F)(F)F)ccc1C [OR0642] showed a remaining binding at 1 µM (SRC) of 92%, a remaining binding at 1 µM [1] of 100% and a remaining binding at 1 µM (PKAC-alpha) of 85%. It also gave a remaining binding at 1 µM (PLK1) of 90%, a remaining binding at 1 µM (ROCK2) of 99% and a remaining binding at 1 µM (RIOK2) of 98%. It also gave a remaining binding at 1 µM (YANK3) of 97%, a remaining binding at 1 µM (PLK3) of 100% and a remaining binding at 1 µM [2] of 100%. It also gave a remaining binding at 1 µM [3] of 97%, a remaining binding at 1 µM (TGFBR1) of 98% and a remaining binding at 1 µM (PIM2) of 100%. The remaining binding at 1 µM (p38-alpha) was 100%, the remaining binding at 1 µM (TRKA) was 100% and the remaining binding at 1 µM (ERBB2) was 100%. For the same compound, the remaining binding at 1 µM (AKT2) was 100%, the remaining binding at 1 µM (PIK3CA) was 100% and the remaining binding at 1 µM (ALK) was 80%. For the same compound, the remaining binding at 1 µM (ERK1) was 86%, the remaining binding at 1 µM (ADCK3) was 95% and the remaining binding at 1 µM (ABL1-phosphorylated) was 99%. For the same compound, the remaining binding at 1 µM (PCTK1) was 98%, the remaining binding at 1 µM (FLT3) was 100% and the remaining binding at 1 µM (KIT(D816V)) was 94%. For the same compound, the remaining binding at 1 µM (BMPR2) was 94%, the remaining binding at 1 µM (CDK7) was 94% and the remaining binding at 1 µM (AKT1) was 91%. The remaining binding at 1 µM (AXL) was 89%, the remaining binding at 1 µM (CDK2) was 100% and the remaining binding at 1 µM (ACVR1B) was 86%. The remaining binding at 1 µM (FAK) was 100%, the remaining binding at 1 µM (EGFR(L858R)) was 72% and the remaining binding at 1 µM (JNK3) was 81%. It also gave a remaining binding at 1 µM (BTK) of 92%, a remaining binding at 1 µM (EPHA2) of 90% and a remaining binding at 1 µM (MLK1) of 91%. For the same compound, the remaining binding at 1 µM (BRAF) was 99%, the remaining binding at 1 µM (MEK2) was 96% and the remaining binding at 1 µM (MET) was 100%.

Reference: PMC10227015, “From a drug repositioning to a structure-based drug design approach to tackle acute lymphoblastic leukemia” (Nature Communications, 2023)
